Measurements taken from patent publication EP3653636A1, “COMPOSITIONS AND METHODS FOR IMPROVING REBAUDIOSIDE X SOLUBILITY” (The Coca-Cola Company, priority 2012, dated 2014).
Values after ≈ are worked out from the molar mass of the structure shown.

Experiments:
[1] = Approximate water solubility by solvent addition method (visual inspection of complete dissolution)
Method: The approximate water solubility of Form A and amorphous Rebaudioside X were determined by a solvent addition method in which a weighed sample was treated with aliquots of water. The mixture was generally vortexed and/or sonicated between additions to facilitate dissolution. Complete dissolution of the test material was determined by visual inspection. Solubility was estimated based on the total solvent used to provide complete dissolution. The actual solubility may be greater than the value calculated because of the use of solvent aliquots that were too large or due to a slow rate of dissolution.

[2] = Water solubility of starting sample and spray-dried product (Example 4); type: physicochemical
[3] = Dynamic Vapor Sorption (DVS) isotherm; type: physicochemical
Method: The Dynamic Vapor Sorption (DVS) DVS data were collected on a VTI SGA-100 Vapor Sorption Analyzer. NaCl and PVP were used as calibration standards. The sample was not dried prior to analysis. Sorption and desorption data were collected over a range from 5 to 95% RH at 10% RH increments under a nitrogen purge. The equilibrium criterion used for analysis was less than 0.0100% weight change in 5 minutes with a maximum equilibration time of 3 hours. Data were not corrected for the initial moisture content of the samples.

[4] = Equilibrium solubility in water by UV absorbance at 205 nm (Example 10); type: physicochemical; details: 25°C; for Original Sample Concentration: 250 mg in 10 mL water
Method: Samples were analyzed with a Cary 50 UV-Vis dual beam spectrophotometer. The detector was zeroed with a cuvette filled with water prior to sample analysis. Samples were analyzed at room temperature in 1.0 cm quartz cuvette using a scan rate of 600 nm/min in a range of 200 - 400 nm.
25.8 mg of amorphous Rebaudioside X was added to a 10-mL volumetric flask and dissolved 10 mL with water. This stock solution was diluted to five concentration levels for UV measurement.
A calibration curve at 205 nm was established (Abs at 205 nm vs. concentration) to provide the equation y = 5.0625x + 0.0022. R^2 was 0.9999. This equation was used for the subsequent determination of Rebaudioside X concentrations.
250 mg of amorphous Rebaudioside X was added to an amber vial and 10 mL of water was added. The mixture was stirred at room temperature about 10 minutes to yield a transparent solution with only small amount of solid remaining. The mixture became opaque rapidly. The mixture was placed on a mechanical oscillator set at a speed of 250 and 25°C. At the sampling time point of 1, 16, 24, 48, 72, 96, and 192 hours, an aliquot of the slurry was transferred to a centrifuge tube and separated at a speed of 16K rcf for 15 minutes. 200 µL of the clear supernatant was transferred to a 50-mL volumetric flask, 10 mL of water was added and mixed well before UV analysis.

[5] = Duration of clarity of aqueous solutions at various test material/water ratios, with or without filtration (Example 9); type: physicochemical
Source text: The water solubility of amorphous Rebaudioside X prepared according to Example 4 was compared in various test material/water ratios with or without filtration prior to solubility determination. Generally, filtration performed after dissolution of sample assist the duration of clarity of the sample (or delays the precipitation/recrystallization of sample). […]

[6] = Table 6, water, solvent addition

## C=C1C[C@@]23CC[C@H]4[C@@](C)(CCC[C@@]4(C)C(=O)O[C@@H]4O[C@H](CO)[C@@H](O)[C@H](O[C@@H]5O[C@H](CO)[C@@H](O)[C@H](O)[C@H]5O)[C@H]4O[C@@H]4O[C@H](CO)[C@@H](O)[C@H](O)[C@H]4O)[C@@H]2CC[C@]1(O[C@@H]1O[C@H](CO)[C@@H](O)[C@H](O[C@@H]2O[C@H](CO)[C@@H](O)[C@H](O)[C@H]2O)[C@H]1O[C@@H]1O[C@H](CO)[C@@H](O)[C@H](O)[C@H]1O)C3 [Amorphous (water process)]
[1]; [6]
  Approximate Water Solubility: >10000 µg/mL

## C=C1C[C@@]23CC[C@H]4[C@@](C)(CCC[C@@]4(C)C(=O)O[C@@H]4O[C@H](CO)[C@@H](O)[C@H](O[C@@H]5O[C@H](CO)[C@@H](O)[C@H](O)[C@H]5O)[C@H]4O[C@@H]4O[C@H](CO)[C@@H](O)[C@H](O)[C@H]4O)[C@@H]2CC[C@]1(O[C@@H]1O[C@H](CO)[C@@H](O)[C@H](O[C@@H]2O[C@H](CO)[C@@H](O)[C@H](O)[C@H]2O)[C@H]1O[C@@H]1O[C@H](CO)[C@@H](O)[C@H](O)[C@H]1O)C3 [Form A Rebaudioside X, (13-[2-O-β-D-glucopyranosyl-3-O-β-D-glucopyranosyl-β-D-glucopyranosyl)oxy] ent kaur-16-en-19-oic acid-[2-O-β-D-glucopyranosyl-3-O-β-D-glycopyranosyl) ester]
[1]; [6]
  Approximate Water Solubility: 1400 µg/mL
[1]; discussion text of Example 13
  Approximate Water Solubility: 14000 µg/mL
[2]
  water solubility: 0.05%

## C=C1C[C@@]23CC[C@H]4[C@@](C)(CCC[C@@]4(C)C(=O)O[C@@H]4O[C@H](CO)[C@@H](O)[C@H](O[C@@H]5O[C@H](CO)[C@@H](O)[C@H](O)[C@H]5O)[C@H]4O[C@@H]4O[C@H](CO)[C@@H](O)[C@H](O)[C@H]4O)[C@@H]2CC[C@]1(O[C@@H]1O[C@H](CO)[C@@H](O)[C@H](O[C@@H]2O[C@H](CO)[C@@H](O)[C@H](O)[C@H]2O)[C@H]1O[C@@H]1O[C@H](CO)[C@@H](O)[C@H](O)[C@H]1O)C3 [amorphous Rebaudioside X, (13-[2-O-β-D-glucopyranosyl-3-O-β-D-glucopyranosyl-β-D-glucopyranosyl)oxy] ent kaur-16-en-19-oic acid-[2-O-β-D-glucopyranosyl-3-O-β-D-glycopyranosyl) ester]
[3]; DVS desorption from 95% to 5% RH
  weight loss upon desorption: 26.0 wt%
[3]; DVS sorption from 5% to 95% RH
  weight gain with increasing relative humidity: 26.3 wt%
[3]; DVS, 5% RH
  weight loss upon equilibration at 5% RH: 3.1 wt%
[4]; sampling time 1 hrs
  Original Sample Concentration: 5.8 mg/mL
[4]; sampling time 16 hrs
  Original Sample Concentration: 2.7 mg/mL
[4]; sampling time 24 hrs
  Original Sample Concentration: 2.6 mg/mL
[4]; sampling time 48 hrs
  Original Sample Concentration: 2.5 mg/mL
[4]; sampling time 72 hrs
  Original Sample Concentration: 2.8 mg/mL
[4]; sampling time 96 hrs
  Original Sample Concentration: 2.8 mg/mL
[4]; sampling time 192 hrs
  Original Sample Concentration: 2.6 mg/mL
[4]; water
  solubility thermodynamic: 2600 µg/mL (≈ 2010 µM)
  time until equilibrium was established: ≤ 16 h
[5]; Sample 1: 250 mg/500 mL water, not filtered
  Duration of Clarity of Sample: > 60 days^a
[5]; Sample 2: 500 mg/500 mL water, not filtered
  Duration of Clarity of Sample: > 60 days^a
[5]; Sample 3: 750 mg/500 mL water, not filtered
  Duration of Clarity of Sample: > 0.12 days
[5]; Sample 5: 625 mg/250 mL water, filtered (0.22 µm membrane)
  Duration of Clarity of Sample: > 1 days
[5]; Sample 6: 1750 mg/500 mL water, not filtered
  Duration of Clarity of Sample: ∼3 h
[5]; Sample 7: 1750 mg/500 mL water, filtered (0.22 µm membrane)
  Duration of Clarity of Sample: > 1 days
[5]; Sample 8: 1000 mg/100 mL water, filtered (0.22 µm membrane)
  Duration of Clarity of Sample: ∼2 h
[1]; aqueous, grams of Rebaudioside X per 100 mL water
  approximate solubility: greater than 0.3%
[2]
  water solubility: greater than 1%
